# Measured values published in patent US9359308B2, “Pyrazine kinase inhibitors” (Portola Pharmaceuticals, Inc., priority 2011, dated 2016).
# Molecular target: T1, full length active recombinant SYK enzyme (Homo sapiens, UniProt P43405)
# T1 construct: full length active recombinant SYK enzyme (Millipore, Calif.); purchased Millipore
# Assay: Inhibition of Syk tyrosine phosphorylation activity (LANCE TR-FRET kinase assay)
# Assay type: biochemical
# Settings: activity in the Syk assays, class symbols
# How it was run: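 IC50 was derived by non-linear regression of TR-FRET signal (Eu-W1024-PY100 donor, streptavidin-APC acceptor) read 1 h after EDTA quench. The kinase step ran 1 h at room temperature with 1 nM full-length SYK, 550 nM biotinylated DEEDYESP substrate and 100 μM ATP in Tris pH 7.5/MgCl2/DTT at 3% final DMSO.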
row,SMILES,IC50 [nM]
1,"COc1ncc(Nc2nc(N[C@@H]3CCCC(F)(F)[C@@H]3N)cnc2C(N)=O)cc1C [Example 332, 5-((1R,2R)-2-amino-3,3-difluorocyclohexylamino)-3-(6-methoxy-5-methylpyridin-3-ylamino)pyrazine-2-carboxamide]",10 to 100
2,"COc1cncc(Nc2nc(N[C@@H]3CCCC(F)(F)[C@@H]3N)cnc2C(N)=O)c1 [Example 333, 5-((1R,2R)-2-amino-3,3-difluorocyclohexylamino)-3-(5-methoxypyridin-3-ylamino)pyrazine-2-carboxamide]",100 to 1000
3,"CC(C)C[C@@H](Nc1cnc(C(N)=O)c(Nc2ccc(N3CCC3)nc2)n1)C(N)=O [Example 334, (R)-5-(1-amino-4-methyl-1-oxopentan-2-ylamino)-3-(6-(azetidin-1-yl)pyridin-3-ylamino)pyrazine-2-carboxamide]",10 to 100
4,"NC(=O)c1ncc(N[C@@H]2CCCC(F)(F)[C@@H]2N)nc1Nc1ccc2nc(N3CCC3)oc2c1 [Example 337, 5-((1R,2R)-2-amino-3,3-difluorocyclohexylamino)-3-(2-(azetidin-1-yl)benzo[d]oxazol-6-ylamino)pyrazine-2-carboxamide]",10 to 100
5,"N#Cc1ccc(Nc2nc(N[C@@H]3CCCC[C@@H]3N)cnc2C(N)=O)cn1 [Example 338, 5-((1R,2S)-2-aminocyclohexylamino)-3-(6-cyanopyridin-3-ylamino)pyrazine-2-carboxamide]",10 to 100
6,"CCc1ccc(Nc2nc(N[C@H](CC)C(N)=O)cnc2C(N)=O)cn1 [Example 340, (R)-5-(1-amino-1-oxobutan-2-ylamino)-3-(6-ethylpyridin-3-ylamino)pyrazine-2-carboxamide]",10 to 100
7,"CC[C@@H](Nc1cnc(C(N)=O)c(Nc2ccc(C3CC3)nc2)n1)C(N)=O [Example 341, (R)-5-(1-amino-1-oxobutan-2-ylamino)-3-(6-cyclopropylpyridin-3-ylamino)pyrazine-2-carboxamide]",10 to 100
8,"CCc1ccc(Nc2nc(N[C@@H]3CCCC(F)(F)[C@@H]3N)cnc2C(N)=O)cn1 [Example 343, 5-((1R,2R)-2-amino-3,3-difluorocyclohexylamino)-3-(6-ethylpyridin-3-ylamino)pyrazine-2-carboxamide]",100 to 1000
9,"NC(=O)c1ncc(N[C@@H]2CCCC(F)(F)[C@@H]2N)nc1Nc1ccc(C2CC2)nc1 [Example 345, 5-((1R,2R)-2-amino-3,3-difluorocyclohexylamino)-3-(6-cyclopropylpyridin-3-ylamino)pyrazine-2-carboxamide]",10 to 100
10,"CC[C@@H](Nc1cnc(C(N)=O)c(Nc2ccnc(C(F)(F)F)c2)n1)C(N)=O [Example 349, (R)-5-(1-amino-1-oxobutan-2-ylamino)-3-(2-(trifluoromethyl)pyridin-4-ylamino)pyrazine-2-carboxamide]",10 to 100
11,"CC[C@@H](Nc1cnc(C(N)=O)c(Nc2ccnc(OC3CCC3)c2)n1)C(N)=O [Example 354, (R)-5-(1-amino-1-oxobutan-2-ylamino)-3-(2-cyclobutoxypyridin-4-ylamino)pyrazine-2-carboxamide]",1 to 10
12,"CCc1cc(Nc2nc(N[C@@H]3CCCC(F)(F)[C@@H]3N)cnc2C(N)=O)ccn1 [Example 355, 5-((1R,2R)-2-amino-3,3-difluorocyclohexylamino)-3-(2-ethylpyridin-4-ylamino)pyrazine-2-carboxamide]",10 to 100
13,"NC(=O)c1ncc(N[C@@H]2CCCC(F)(F)[C@@H]2N)nc1Nc1ccnc(OC2CCC2)c1 [Example 356, 5-((1R,2R)-2-amino-3,3-difluorocyclohexylamino)-3-(2-cyclobutoxypyridin-4-ylamino)pyrazine-2-carboxamide]",10 to 100
14,"COC[C@@H](Nc1cnc(C(N)=O)c(Nc2ccc3ncccc3c2)n1)C(N)=O [Example 360, (R)-5-(1-amino-3-methoxy-1-oxopropan-2-ylamino)-3-(quinolin-6-ylamino)pyrazine-2-carboxamide]",10 to 100
15,"NC(=O)c1ncc(N[C@H](Cc2ccncc2)C(N)=O)nc1Nc1ccc2ncccc2c1 [Example 361, (R)-5-(1-amino-1-oxo-3-(pyridin-4-yl)propan-2-ylamino)-3-(quinolin-6-ylamino)pyrazine-2-carboxamide]",10 to 100
16,"NC(=O)c1ncc(NC2(C(N)=O)CC2)nc1Nc1cnc2ccccc2c1 [Example 362, 5-(1-carbamoylcyclopropylamino)-3-(quinolin-3-ylamino)pyrazine-2-carboxamide]",10 to 100
17,"NC(=O)c1ncc(N[C@@H]2CCCC(F)(F)[C@@H]2N)nc1Nc1cncc2ccccc12 [Example 363, 5-((1R,2R)-2-amino-3,3-difluorocyclohexylamino)-3-(isoquinolin-4-ylamino)pyrazine-2-carboxamide]",10 to 100
18,"NC(=O)c1ncc(N[C@@H]2CCCC(F)(F)[C@@H]2N)nc1Nc1ccc2cnccc2c1 [Example 364, 5-((1R,2R)-2-amino-3,3-difluorocyclohexylamino)-3-(isoquinolin-6-ylamino)pyrazine-2-carboxamide]",1 to 10
19,"NC(=O)c1ncc(N[C@@H]2CCCC(F)(F)[C@@H]2N)nc1Nc1ccc2nccnc2c1 [Example 365, 5-((1R,2R)-2-amino-3,3-difluorocyclohexylamino)-3-(quinoxalin-6-ylamino)pyrazine-2-carboxamide]",10 to 100
20,"NC(=O)c1ncc(N[C@@H]2CCCC(F)(F)[C@@H]2N)nc1Nc1ccnc2ccccc12 [Example 366, 5-((1R,2R)-2-amino-3,3-difluorocyclohexylamino)-3-(quinolin-4-ylamino)pyrazine-2-carboxamide]",10 to 100
21,"CC[C@@H](Nc1cnc(C(N)=O)c(Nc2cncc3ccccc23)n1)C(N)=O [Example 367, (R)-5-(1-amino-1-oxobutan-2-ylamino)-3-(isoquinolin-4-ylamino)pyrazine-2-carboxamide]",1 to 10

# Other lines, results leading:
row,IC50 [nM],SMILES
1,1 to 10,"CC(C)C[C@@H](Nc1cnc(C(N)=O)c(Nc2ccnc(N(C)C)c2)n1)C(N)=O [Example 335, (R)-5-(1-amino-4-methyl-1-oxopentan-2-ylamino)-3-(2-(dimethylamino)pyridin-4-ylamino)pyrazine-2-carboxamide]"
2,1 to 10,"CN(C)c1nc2ccc(Nc3nc(N[C@@H]4CCCC(F)(F)[C@@H]4N)cnc3C(N)=O)cc2o1 [Example 336, 5-((1R,2R)-2-amino-3,3-difluorocyclohexylamino)-3-(2-(dimethylamino)benzo[d]oxazol-6-ylamino)pyrazine-2-carboxamide]"
3,< 1,"CN1Cc2cc(Nc3nc(N[C@@H]4CCCC[C@@H]4N)cnc3C(N)=O)ccc2C1=O [Example 339, 5-((1R,2S)-2-aminocyclohexylamino)-3-(2-methyl-1-oxoisoindolin-5-ylamino)pyrazine-2-carboxamide]"
4,< 1,"CC[C@@H](Nc1cnc(C(N)=O)c(Nc2ccnc(C3CC3)c2)n1)C(N)=O [Example 342, (R)-5-(1-amino-1-oxobutan-2-ylamino)-3-(2-cyclopropylpyridin-4-ylamino)pyrazine-2-carboxamide]"
5,< 1,"CC(C)C[C@@H](Nc1cnc(C(N)=O)c(Nc2ccnc(C3CC3)c2)n1)C(N)=O [Example 344, (R)-5-(1-amino-4-methyl-1-oxopentan-2-ylamino)-3-(2-cyclopropylpyridin-4-ylamino)pyrazine-2-carboxamide]"
6,1 to 10,"NC(=O)c1ncc(N[C@@H]2CCCC(F)(F)[C@@H]2N)nc1Nc1ccnc(C2CC2)c1 [Example 346, 5-((1R,2R)-2-amino-3,3-difluorocyclohexylamino)-3-(2-cyclopropylpyridin-4-ylamino)pyrazine-2-carboxamide]"
7,1 to 10,"CCc1ccc(Nc2nc(N[C@H](CC(C)C)C(N)=O)cnc2C(N)=O)cn1 [Example 347, (R)-5-(1-amino-4-methyl-1-oxopentan-2-ylamino)-3-(6-ethylpyridin-3-ylamino)pyrazine-2-carboxamide]"
8,1 to 10,"CC(C)C[C@@H](Nc1cnc(C(N)=O)c(Nc2ccc(C3CC3)nc2)n1)C(N)=O [Example 348, (R)-5-(1-amino-4-methyl-1-oxopentan-2-ylamino)-3-(6-cyclopropylpyridin-3-ylamino)pyrazine-2-carboxamide]"
9,1 to 10,"CCc1ccc(Nc2nc(N[C@@H]3CCCC[C@@H]3N)cnc2C(N)=O)cn1 [Example 350, 5-((1R,2S)-2-aminocyclohexylamino)-3-(6-ethylpyridin-3-ylamino)pyrazine-2-carboxamide]"
10,1 to 10,"NC(=O)c1ncc(N[C@@H]2CCCC[C@@H]2N)nc1Nc1ccc(C2CC2)nc1 [Example 351, 5-((1R,2S)-2-aminocyclohexylamino)-3-(6-cyclopropylpyridin-3-ylamino)pyrazine-2-carboxamide]"
11,< 1,"NC(=O)c1ncc(N[C@@H]2CCCC[C@@H]2N)nc1Nc1ccnc(C2CC2)c1 [Example 352, 5-((1R,2S)-2-aminocyclohexylamino)-3-(2-cyclopropylpyridin-4-ylamino)pyrazine-2-carboxamide]"
12,1 to 10,"CC[C@@H](Nc1cnc(C(N)=O)c(Nc2ccnc(N(C)C)c2)n1)C(N)=O [Example 353, (R)-5-(1-amino-1-oxobutan-2-ylamino)-3-(2-(dimethylamino)pyridin-4-ylamino)pyrazine-2-carboxamide]"
13,1 to 10,"COc1cc(Nc2nc(N[C@@H]3CCOC[C@@H]3N)cnc2C(N)=O)ccn1 [Example 357, 5-((3R,4R)-3-aminotetrahydro-2H-pyran-4-ylamino)-3-(2-methoxypyridin-4-ylamino)pyrazine-2-carboxamide]"
14,1 to 10,"COc1cncc(Nc2nc(N[C@@H]3CCOC[C@@H]3N)cnc2C(N)=O)c1 [Example 358, 5-((3R,4R)-3-aminotetrahydro-2H-pyran-4-ylamino)-3-(5-methoxypyridin-3-ylamino)pyrazine-2-carboxamide]"
15,1 to 10,"CC[C@@H](Nc1cnc(C(N)=O)c(Nc2ccc(-c3cnn(C)c3)cc2)n1)C(N)=O [Example 359, (R)-5-(1-amino-1-oxobutan-2-ylamino)-3-(4-(1-methyl-1H-pyrazol-4-yl)phenylamino)pyrazine-2-carboxamide]"
